From US20110105504A1, “Inhibitors Of 11beta-Hydroxysteroid Dehydrogenase Type 1” (Vitae Pharmaceuticals ,Inc., priority 2008, published 2011)

Target: T1, human 11β-HSD1 (Homo sapiens, UniProt P28845)
T1 construct: expressed in transfected cells; host or cells: CHO cells (microsomes isolated from them)
Test: Inhibition of microsomal preparation of 11β-HSD1 (SPA, [3H]cortisone to [3H]cortisol), Biological Test Example 1
Assay type: biochemical
Conditions: microsomes from CHO cells overexpressing human 11β-HSD1; for inhibition at 0.1 µM / Average % inhibition at 100 nM: 100 nM compound; for IC50: read-out: IC50 Range; for Average % inhibition at 100 nM: 0.1 µM
Procedure: The inhibition of microsomal preparation of 11β-HSD1 by compounds of the invention was measured essentially as previously described (K. Solly, S. S. Mundt, H. J. Zokian, G. J. Ding, A. Hermanowski-Vosatka, B. Strulovici, and W. Zheng, High-Throughput Screening of 11-Beta-Hydroxysteroid Dehydrogenase Type 1 in Scintillation Proximity Assay Format. Assay Drug Dev Technol 3 (2005) 377-384). All reactions were carried out at room temperature in 96 well clear flexible PET Microbeta plates (PerkinElmer). The assay begins by dispensing 49 p. 1 of substrate solution (50 mM HEPES, pH 7.4, 100 mM KCl, 5 mM NaCl, 2 mM MgCl2, 2 mM NADPH and 160 nM [^3H]cortisone (1 Ci/mmol)) and mixing in 1 μL of the test compounds in DMSO previously diluted in half-log increments (8 points) starting at 0.1 mM. After a 10 minute pre-incubation, 50 μL of enzyme solution containing microsomes isolated from CHO cells overexpressing human 11β-HSD1 (10-20 μg/ml of total protein) was added, and the plates were incubated for 90 minutes at room temperature. The reaction was stopped by adding 50 μl of the SPA beads suspension containing 10 μM 18β-glycyrrhetinic acid, 5 mg/ml protein A coated YSi SPA beads (GE Healthcare) and 3.3 μg/ml of anti-cortisol antibody (East Coast Biologics) in Superblock buffer (Bio-Rad). The plates were shaken for 120 minutes at room temperature, and the SPA signal corresponding to [^3H]cortisol was measured on a Microbeta plate reader.

T1 sequence (P28845 whole entry): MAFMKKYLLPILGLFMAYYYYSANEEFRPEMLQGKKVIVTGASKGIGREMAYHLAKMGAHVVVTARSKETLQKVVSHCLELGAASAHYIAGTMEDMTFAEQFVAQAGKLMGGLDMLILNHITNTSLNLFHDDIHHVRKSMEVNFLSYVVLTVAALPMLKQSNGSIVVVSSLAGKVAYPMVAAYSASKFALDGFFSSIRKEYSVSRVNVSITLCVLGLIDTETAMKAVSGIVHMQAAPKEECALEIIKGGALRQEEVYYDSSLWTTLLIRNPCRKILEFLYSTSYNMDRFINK

C[C@@H](c1ccc(-c2ccn(C)c(=O)c2)cc1)N1C[C@](CC(C)(C)O)(c2ccccc2)OC1=O (single isomer, unassigned) [Example 5 Isomer 1]
inhibition at 0.1 µM: 51.9%
IC50: < 100 nM

C[C@@H](c1ccc(-c2ccc(F)cc2)cc1)N1CC(CCCO)(c2ccc(F)cc2)OC1=O (single isomer, unassigned) [Example 3 Isomer 1]
Average % inhibition at 100 nM: 91.4%
IC50: < 100 nM

C[C@@H](c1ccc(Br)cc1)N1CC(CCCO)(c2ccc(F)cc2)OC1=O (single isomer, unassigned) [Example 2 Isomer 1]
Average % inhibition at 100 nM: 78.3%
IC50: < 100 nM

C[C@@H](c1ccc(-c2ccn(C)c(=O)c2)cc1)N1C[C@@](CC(C)(C)O)(c2ccccc2)OC1=O (single isomer, unassigned) [Example 5 Isomer 2]
inhibition at 0.1 µM: 3.4%
IC50: > 100 nM

Cc1cccc(N2CC(C)(c3ccccc3)OC2=O)c1 (stereo not drawn) [Example 7, 5-Methyl-5-phenyl-3-m-tolyloxazolidin-2-one]
inhibition at 0.1 µM: 5.4%
IC50: > 1000 nM

C[C@@H](c1ccc(-c2ccn(C)c(=O)c2)cc1)N1C[C@](CCC(C)(C)O)(c2ccccc2)OC1=O (single isomer, unassigned) [Example 6 Isomer 2]
Average % inhibition at 100 nM: 19.8%
IC50: > 100 nM

C[C@@H](c1ccc(Br)cc1)N1CC(CCCO)(c2ccc(F)cc2)OC1=O (single isomer, unassigned) [Example 2 Isomer 2]
Average % inhibition at 100 nM: 16.9%
IC50: > 100 nM

C[C@@H](c1ccc(-c2ccc(F)cc2)cc1)N1CC(CCCO)(c2ccc(F)cc2)OC1=O (single isomer, unassigned) [Example 3 Isomer 2]
Average % inhibition at 100 nM: 19.1%
IC50: > 100 nM

C[C@@H](c1ccc(-c2ccn(C)c(=O)c2)cc1)N1C[C@](CCC(C)(C)O)(c2ccccc2)OC1=O (single isomer, unassigned) [Example 6 Isomer 1]
inhibition at 0.1 µM: 18.4%
IC50: > 100 nM
